The text below walks through data of patent US20230150970A1, “AMINOPYRIMIDINE DERIVATIVES AND THEIR USE AS ARYL HYDROCARBON RECEPTOR MODULATORS” (DONG-A ST CO., LTD., priority 2020, published 2023).

Where two headings read alike, the source gives them in different places.

For data set [1], the target named is T1, AhR (Homo sapiens, UniProt P35869).
T1 sequence (P35869 11-848): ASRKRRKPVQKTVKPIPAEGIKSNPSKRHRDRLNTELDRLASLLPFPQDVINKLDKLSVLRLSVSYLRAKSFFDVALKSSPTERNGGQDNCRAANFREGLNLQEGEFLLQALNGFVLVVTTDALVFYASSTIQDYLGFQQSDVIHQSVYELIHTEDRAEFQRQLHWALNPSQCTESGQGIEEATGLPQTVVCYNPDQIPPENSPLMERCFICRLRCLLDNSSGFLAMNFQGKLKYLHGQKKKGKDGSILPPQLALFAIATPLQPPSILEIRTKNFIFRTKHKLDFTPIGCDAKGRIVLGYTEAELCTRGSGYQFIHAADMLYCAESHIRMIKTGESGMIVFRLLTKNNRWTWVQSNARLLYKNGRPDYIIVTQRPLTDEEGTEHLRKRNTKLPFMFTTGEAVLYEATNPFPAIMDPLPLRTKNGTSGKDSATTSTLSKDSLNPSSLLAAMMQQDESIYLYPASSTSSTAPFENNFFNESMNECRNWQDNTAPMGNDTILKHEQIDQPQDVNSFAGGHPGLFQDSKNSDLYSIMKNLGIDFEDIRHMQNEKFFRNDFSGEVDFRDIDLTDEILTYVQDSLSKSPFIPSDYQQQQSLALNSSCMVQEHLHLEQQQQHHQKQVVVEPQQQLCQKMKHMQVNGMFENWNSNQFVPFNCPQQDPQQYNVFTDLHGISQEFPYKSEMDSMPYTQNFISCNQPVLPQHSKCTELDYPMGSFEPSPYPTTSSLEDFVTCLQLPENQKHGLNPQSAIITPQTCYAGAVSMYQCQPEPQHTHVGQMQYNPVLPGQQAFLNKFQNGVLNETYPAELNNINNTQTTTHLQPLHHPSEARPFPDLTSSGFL
Text: (§1) In Vitro XRE-Luciferase Reporter Assay (In Vitro Assay 1, 2, 3) AhR activation leads the induction of target gene expression such as CYP1A1 and CYPIB1 by AhR binding to AhR-responsive DNA elements also known as xenobiotics responsive elements (XREs). The assay for measuring AhR activity herein is the luciferase assay using cell lines transfected with luciferase reporter plasmid containing XREs at the upstream of the reporter gene. Cells transfected with XRE-luciferase reporter (XRE-Luc), plasmid drive luciferase activity reflecting activation and inhibition of AhR in the cells. […] Kynurenine (an endogenous AhR agonist), was used to stimulate cells to test antagonistic properties of the compounds. The half-maximal inhibitory concentration (IC50), or half-maximal effective concentration (EC50), value was calculated using nonlinear regression (four parameters), with Prism8.0 software (GraphPad).
(§2) In Vitro Assay 1: Antagonism in Human Cell Line
(§3) HepG2 (human hepatoma cell line) cell line with a XRE-luciferase reporter either transiently or stably (Invivogen) were plated in complete medium and incubated at 37° C. in a CO2 incubator. After 24 hours, cells were treated with kynurenine (50* or 200 μM) alone (negative control) or with test compounds for 6 hours. Luciferase activity was measured with a commercial kit such as the Promega Luciferase kit or Invivogen Luciferase kit. Relative luciferase activity (Firefly/Nano-Luc) was used to calculate IC50 values. […] (IC50 values are grouped as A, B, C and D, whereby A: IC50<0.01 μM; B: 0.01<IC50<0.1 μM; C: 0.1<IC50<1.0 μM; D: IC50>1.0 μM)

In data set [2] the target is T1, AhR. The experiment in a line: In Vitro Assay 3: XRE-luciferase reporter assay, agonism in human cell line (HepG2). Type of data set: cell-based. Also on record: endogenous in cells; host or cells: HepG2. The conditions noted are these: HepG2, tryptophan free medium, 6 hours, no agonist, read-out: Assay 3: AhR-Luc Human Agonism (EC50). On the procedure: In Vitro Assay 3: Agonism in Human Cell Line
HepG2 (human hepatoma cell line) cells co-transfected with XRE-Luc and Nano-Luc plasmids were plated in tryptophan free medium containing 1% of dialyzed fetal bovine serum and incubated overnight at 37° C. in a CO2 incubator. After 24 hours, cells were treated for 6 hours with test compounds or not. […] As a positive control, cells were incubated with TCDD.

The target in data set [3] is T1, AhR. The experiment in a line: In Vitro Assay 1: XRE-luciferase reporter assay, antagonism in human cell line (HepG2). The conditions noted are these: Assay 1: AhR-Luc Human Antagonism (IC50, nM), 6 hours.
Text: as §1, §2, §3
For data set [4], the target named is T2, AhR (Mus musculus, UniProt P30561).
T2 sequence (P30561 1-848): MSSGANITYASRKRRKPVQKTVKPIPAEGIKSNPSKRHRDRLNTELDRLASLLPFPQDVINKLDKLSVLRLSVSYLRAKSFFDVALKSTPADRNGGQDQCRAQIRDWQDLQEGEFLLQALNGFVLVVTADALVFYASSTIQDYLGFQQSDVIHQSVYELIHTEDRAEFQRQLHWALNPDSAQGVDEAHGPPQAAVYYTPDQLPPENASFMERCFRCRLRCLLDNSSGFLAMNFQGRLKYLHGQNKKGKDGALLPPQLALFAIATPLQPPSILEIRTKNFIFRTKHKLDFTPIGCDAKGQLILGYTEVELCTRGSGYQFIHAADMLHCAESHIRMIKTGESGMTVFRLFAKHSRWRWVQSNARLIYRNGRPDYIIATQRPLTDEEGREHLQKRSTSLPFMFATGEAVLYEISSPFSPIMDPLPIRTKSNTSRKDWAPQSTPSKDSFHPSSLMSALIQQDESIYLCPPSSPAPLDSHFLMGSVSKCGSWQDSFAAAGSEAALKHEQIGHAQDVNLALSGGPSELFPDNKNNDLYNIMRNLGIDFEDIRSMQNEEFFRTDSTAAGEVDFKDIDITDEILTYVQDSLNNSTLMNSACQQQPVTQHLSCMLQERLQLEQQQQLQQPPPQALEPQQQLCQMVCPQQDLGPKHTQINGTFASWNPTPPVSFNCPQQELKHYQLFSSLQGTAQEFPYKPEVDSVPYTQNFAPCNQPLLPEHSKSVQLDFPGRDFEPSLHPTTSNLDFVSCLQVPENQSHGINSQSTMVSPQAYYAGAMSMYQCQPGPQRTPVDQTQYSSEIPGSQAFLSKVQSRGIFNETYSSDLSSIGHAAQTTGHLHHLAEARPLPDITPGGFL
The experiment in a line: In Vitro Assay 2: XRE-luciferase reporter assay, antagonism in mouse cell line (Hepa1c1c7). The format is cell-based. The conditions noted are these: 6 hours, read-out: Assay 2: AhR-Luc Mouse Antagonism (IC50). On the procedure:
In Vitro Assay 2: Antagonism in Mouse Cell Line
Hepa1c1c7 (murine liver cancer cell line) cells co-transfected with XRE-Luc and Nano-Luc plasmids were plated in complete medium and incubated overnight at 37° C. in a CO2 incubator. Following incubation, cells were treated with AhR activating ligands such as kynurenic acid, kynurenine (#) with or without test compounds for 6 hours.
(A reporter such as luciferase makes a cellular process visible.)

Data set [5] deals with T1, AhR. As to the kind of experiment: In Vitro Assay 4: endogenous AhR activity assay (CYP1A1 and CYP1B1 mRNA, qRT-PCR, HepG2 cells).
Experimental: In Vitro Assay 4: Endogenous AhR Activity Assay
HepG2 cells were seeded in 12-well plate (3×10^5 cells/well). A day after seeding, the cells were treated with TCDD (10 nM) alone or with compounds (123 nM) for 4 hours. Total RNA was extracted using Trizol (Thermo Fisher Scientific). cDNA synthesis and quantitative RT-PCR (qRT-PCR) assays were performed using PrimeScript™ RT Master Mix (TAKARA) and TB Green™ Premix Ex Taq™ II (TAKARA) in accordance with manufacturer's instruction. For the measurement of endogenous AhR activity, relative mRNA levels of CYP1A1 and CYP1B1 were quantitated relative to β-actin mRNA by the comparative Ct (ΔΔCt) method. The percent inhibitions were calculated according to:
Where [6] appears, read: values marked *: kynurenine 50 μM.
Setting [7] is: values marked #: AhR activating ligand kynurenine.
Setting [8] is: HepG2, read-out: CYP1A1 (% Inhibition).
The mark [9] stands for this setting: HepG2, read-out: CYP1B1 (% Inhibition).
Setting [10] is: unmarked values: kynurenine 200 μM.
Where [11] appears, read: unmarked values: AhR activating ligand kynurenic acid.

What is called IC50 is the midpoint of a concentration-inhibition curve. “4-(4-chlorophenyl)-2-(pyridin-3-yl)-6-(4-(pyrimidin-2-yl)piperazin-1-yl)pyrimidine [Example 90]” came in with an IC50 against AhR [1] of 10 to 100 nM.

What is called EC50 is the midpoint of the concentration-response curve. One may read the inhibition as the relative decrease from the control value, in per cent. As for `O=C1CN(c2cc(-c3ccc(Cl)cc3)nc(-c3cccnc3)n2)CCN1` [Example 94, 4-(6-(4-chlorophenyl)-2-(pyridin-3-yl)pyrimidin-4-yl)piperazin-2-one], the EC50 is above 10000 nM at AhR [2] (class in brackets of the cell) and above 30000 nM at AhR [2] (number of the cell). The concentration for half-maximal inhibition (IC50) was in the range of 10 to 100 nM on AhR [3] (setting [6]) and 100 to 1000 nM on AhR [4] (setting [7]). Further, the inhibition at 0.123 µM on AhR [5] (setting [8]) was 63.1%; on AhR [5] (setting [9]) it was 92.1%.

Take `CN1CCN(c2cc(-c3ccc(Cl)cc3)nc(-c3cccnc3)n2)CC1` [Example 105, 4-(4-chlorophenyl)-6-(4-methylpiperazin-1-yl)-2-(pyridin-3-yl)pyrimidine]: the 50% effective concentration (EC50) at AhR [2] (class in brackets of the cell) was above 10000 nM; at AhR [2] (number of the cell) it was above 30000 nM. Further, the results for the IC50 on AhR [3] (setting [6]) and at AhR [4] (setting [7]) were below 10 nM and 100 to 1000 nM, respectively. The figures for the inhibition at 0.123 µM at AhR [5] (setting [8]) and at AhR [5] (setting [9]) were 59.2% and 88.4%, respectively.

In the case of `O[C@H]1CCN(c2cc(-c3ccc(Cl)cc3)nc(-c3cccnc3)n2)C1` [Example 137, (S)-1-(6-(4-chlorophenyl)-2-(pyridin-3-yl)pyrimidin-4-yl)pyrrolidin-3-ol], the results for the EC50 on AhR [2] (class in brackets of the cell) and at AhR [2] (number of the cell) were above 10000 nM and above 30000 nM, respectively. The IC50 at AhR [3] (setting [10]) and on AhR [4] (setting [11]) was below 10 nM throughout. The inhibition at 0.123 µM at AhR [5] (setting [8]) was 91.6%; on AhR [5] (setting [9]), 97.7%.

For the compound `OCC1CCN(c2cc(-c3ccc(C(F)(F)F)cc3)nc(-c3cccnc3)n2)CC1` [Example 226, (1-(2-(pyridin-3-yl)-6-(4-(trifluoromethyl)phenyl)pyrimidin-4-yl)piperidin-4-yl)methanol], the concentration giving a half-maximal response (EC50) at AhR [2] (class in brackets of the cell) is above 10000 nM; on AhR [2] (number of the cell), above 30000 nM. In addition, the IC50 is below 10 nM against AhR [3] (setting [10]) and 10 to 100 nM at AhR [4] (setting [7]). Also, the inhibition at 0.123 µM at AhR [5] (setting [8]) was determined as 108%; on AhR [5] (setting [9]), 101%.

Consider `O[C@@H]1CN(c2cc(-c3ccc(Cl)cc3)nc(-c3cccnc3)n2)C[C@@H]1F` [Example 235, (3R,4S)-1-(6-(4-chlorophenyl)-2-(pyridin-3-yl)pyrimidin-4-yl)-4-fluoropyrrolidin-3-ol], for which the EC50 at AhR [2] (number of the cell) turned out to be 3560 nM. Also, the IC50 against AhR [3] (setting [6]) is below 10 nM; at AhR [4] (setting [7]) it was 10 to 100 nM. Also, the results for the inhibition at 0.123 µM on AhR [5] (setting [8]) and at AhR [5] (setting [9]) were 106% and 101%, respectively.

In the case of `O=S(=O)(CCO)N1CCN(c2cc(-c3ccc(Cl)cc3)nc(-c3cccnc3)n2)CC1` [Example 239, 2-((4-(6-(4-chlorophenyl)-2-(pyridin-3-yl)pyrimidin-4-yl)piperazin-1-yl)sulfonyl)ethan-1-ol], the EC50 is above 10000 nM on AhR [2] (class in brackets of the cell) and above 30000 nM on AhR [2] (number of the cell). Moreover, the IC50 at AhR [3] (setting [10]) and at AhR [4] (setting [11]) was below 10 nM throughout. The inhibition at 0.123 µM amounted to 108% on AhR [5] (setting [8]) and 101% at AhR [5] (setting [9]).

As for `OCC1CCN(c2cc(-c3ccc(N4CCOCC4)cc3)nc(-c3cccnc3)n2)CC1` [Example 268, (1-(6-(4-morpholinophenyl)-2-(pyridin-3-yl)pyrimidin-4-yl)piperidin-4-yl)methanol], the EC50 on AhR [2] (class in brackets of the cell) was above 10000 nM; on AhR [2] (number of the cell), above 30000 nM. In addition, the IC50 at AhR [3] (setting [10]) and on AhR [4] (setting [7]) was below 10 nM in each case. In addition, at AhR [5] (setting [8]), the inhibition at 0.123 µM was 102%.

For `O[C@H]1CCN(c2cc(-c3ccc(Cl)cc3)nc(-c3cncc(F)c3)n2)C1` [Example 323, (S)-1-(6-(4-chlorophenyl)-2-(5-fluoropyridin-3-yl)pyrimidin-4-yl)pyrrolidin-3-ol], the EC50 was above 10000 nM at AhR [2] (class in brackets of the cell) and above 30000 nM on AhR [2] (number of the cell). Also, the IC50 was below 10 nM against AhR [3] (setting [10]) and 10 to 100 nM at AhR [4] (setting [7]). For the same compound, the inhibition at 0.123 µM on AhR [5] (setting [8]) was 108%; on AhR [5] (setting [9]), 99.8%.

For the compound `O[C@H]1CCN(c2cc(-c3ccc(C(F)(F)F)cc3)nc(-c3cncc(F)c3)n2)C1` [Example 327, (S)-1-(2-(5-fluoropyridin-3-yl)-6-(4-(trifluoromethyl)phenyl)pyrimidin-4-yl)pyrrolidin-3-ol], the EC50 at AhR [2] (number of the cell) is 1720 nM. The 50% inhibitory concentration (IC50) against AhR [3] (setting [10]) is below 10 nM; at AhR [4] (setting [7]), 10 to 100 nM. Besides, the results for the inhibition at 0.123 µM on AhR [5] (setting [8]) and at AhR [5] (setting [9]) were 106% and 101%, respectively.

As for `O=C(CCO)N1CCN(c2cc(-c3ccc(Cl)cc3)nc(-c3cccnc3)n2)CC1` [Example 352, 1-(4-(6-(4-chlorophenyl)-2-(pyridin-3-yl)pyrimidin-4-yl)piperazin-1-yl)-3-hydroxypropan-1-one], the values for the concentration giving a half-maximal response (EC50) on AhR [2] (class in brackets of the cell) and on AhR [2] (number of the cell) were above 10000 nM and above 30000 nM, respectively. Besides, the IC50 against AhR [3] (setting [10]) was below 10 nM; on AhR [4] (setting [7]) it was 10 to 100 nM. Moreover, the inhibition at 0.123 µM at AhR [5] (setting [8]) was determined as 87.2%.
